According to ChEMBL document CHEMBL4190368, “Synthesis and antimalarial evaluation of artesunate-polyamine and trioxolane-polyamine conjugates” (Eur J Med Chem, 2017):

How the values were obtained:
[1] = tested on: Plasmodium berghei; assay: Antiplasmodial activity against GFP-transfected Plasmodium berghei ANKA infected in NMRI mouse assessed as reduction in parasitaemia at 100 mg/kg/day, po for 4 days measured on 24 hrs after last dose by FACS analysis; format: functional; design: scale not given: the % may be the effect or the level left
[2] = tested on: Plasmodium berghei; assay: Antiplasmodial activity against GFP-transfected Plasmodium berghei ANKA infected in NMRI mouse assessed as mouse survival at 50 mg/kg/day, ip for 4 days measured up to 30 days; format: functional
[3] = tested on: Plasmodium falciparum; assay: Antiplasmodial activity against chloroquine sensitive Plasmodium falciparum NF54 assessed as reduction in [3H]-hypoxanthine incorporation incubated for 48 hrs by liquid scintillation counting method; format: functional, organism-based
[4] = tested on: L6; assay: Cytotoxicity in rat L6 cells assessed as reduction in cell viability incubated for 72 hrs by alamar blue dye based assay; conditions: L6, 72 h
[5] = tested on: Plasmodium berghei; assay: Antiplasmodial activity against GFP-transfected Plasmodium berghei ANKA infected in NMRI mouse assessed as reduction in parasitaemia at 50 mg/kg/day, ip for 4 days measured on 24 hrs after last dose by FACS analysis; format: functional; design: scale not given: the % may be the effect or the level left
[6] = Selectivity index, ratio of IC50 for rat L6 cells to IC50 for chloroquine sensitive Plasmodium falciparum NF54; format: toxicity; conditions: L6 cells versus Plasmodium falciparum NF54, read-out: Ratio IC50
[7] = tested on: Plasmodium berghei; assay: Antiplasmodial activity against GFP-transfected Plasmodium berghei ANKA infected in NMRI mouse assessed as mouse survival at 50 mg/kg/day, po for 4 days measured up to 30 days; format: functional

Q: With `C[C@H]1[C@H](OC(=O)CCC(=O)NCCCN(CCCCN(CCCNC(=O)CCC(=O)O[C@@H]2O[C@@H]3O[C@@]4(C)CC[C@H]5[C@H](C)CC[C@@H]([C@H]2C)[C@@]35OO4)C(=O)OC(C)(C)C)C(=O)OC(C)(C)C)O[C@@H]2O[C@@]3(C)CC[C@H]4[C@H](C)CC[C@@H]1[C@@]24OO3` as the compound, how does the Activity [1] read?
A: 95.7%

Q: What about the Survival [2] of the same compound?
A: 30 days

Q: What about the IC50 [3] of the same compound?
A: 0.0004 µM

Q: And the IC50 [4]?
A: 12.1 µM

Q: And the Activity [5]?
A: 99.8%

Q: And the selectivity ratio [6]?
A: 30200

Q: And the Survival [7]?
A: 16 to 30 days
